The text below walks through data of patent US20050048508A1, “Trehalose receptor and method for detecting trehalose with the same” (KABUSHIKI KAISHA HAYASHIBARA SEIBUTSU KAGAKU KENKYUJO, priority 2002, published 2005).

This experiment concerns the target T1, T1R1 and T1R2 with G protein α-subunits (α15 and α16/Z chimeric protein) (Mus musculus, UniProt Q925I4+Q99PG6, E350G/G527D/P352R/R175Q).
T1 construct: expressed in transfected cells; host or cells: 293 cells, RCB 1637 (human embryonic kidney)
T1 sequence (Q99PG6 20-842 L120P/N244D/D281A/N309Y/P311T/S314P/H418Y): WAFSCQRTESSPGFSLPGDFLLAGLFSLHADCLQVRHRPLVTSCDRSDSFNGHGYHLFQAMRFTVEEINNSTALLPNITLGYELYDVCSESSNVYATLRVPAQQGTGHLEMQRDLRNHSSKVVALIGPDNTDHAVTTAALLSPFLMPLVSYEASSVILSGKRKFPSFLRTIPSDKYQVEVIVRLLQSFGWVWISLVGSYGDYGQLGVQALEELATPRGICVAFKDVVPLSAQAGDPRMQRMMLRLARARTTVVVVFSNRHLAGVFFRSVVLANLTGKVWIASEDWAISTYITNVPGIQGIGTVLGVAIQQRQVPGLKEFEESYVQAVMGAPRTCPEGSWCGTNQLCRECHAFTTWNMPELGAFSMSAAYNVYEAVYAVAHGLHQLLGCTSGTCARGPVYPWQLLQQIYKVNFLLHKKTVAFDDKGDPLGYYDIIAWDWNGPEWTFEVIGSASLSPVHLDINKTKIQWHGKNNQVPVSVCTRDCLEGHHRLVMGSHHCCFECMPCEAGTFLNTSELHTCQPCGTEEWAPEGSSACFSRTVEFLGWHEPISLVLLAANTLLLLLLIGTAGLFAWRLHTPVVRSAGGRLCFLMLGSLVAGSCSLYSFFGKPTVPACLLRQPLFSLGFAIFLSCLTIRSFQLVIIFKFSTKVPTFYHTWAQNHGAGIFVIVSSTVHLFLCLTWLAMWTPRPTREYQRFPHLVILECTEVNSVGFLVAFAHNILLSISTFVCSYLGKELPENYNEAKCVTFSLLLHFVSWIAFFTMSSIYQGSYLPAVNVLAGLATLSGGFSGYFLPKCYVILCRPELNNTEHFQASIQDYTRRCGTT
T1 sequence (Q925I4 20-843 R175Q/E350G/P352R/G527D): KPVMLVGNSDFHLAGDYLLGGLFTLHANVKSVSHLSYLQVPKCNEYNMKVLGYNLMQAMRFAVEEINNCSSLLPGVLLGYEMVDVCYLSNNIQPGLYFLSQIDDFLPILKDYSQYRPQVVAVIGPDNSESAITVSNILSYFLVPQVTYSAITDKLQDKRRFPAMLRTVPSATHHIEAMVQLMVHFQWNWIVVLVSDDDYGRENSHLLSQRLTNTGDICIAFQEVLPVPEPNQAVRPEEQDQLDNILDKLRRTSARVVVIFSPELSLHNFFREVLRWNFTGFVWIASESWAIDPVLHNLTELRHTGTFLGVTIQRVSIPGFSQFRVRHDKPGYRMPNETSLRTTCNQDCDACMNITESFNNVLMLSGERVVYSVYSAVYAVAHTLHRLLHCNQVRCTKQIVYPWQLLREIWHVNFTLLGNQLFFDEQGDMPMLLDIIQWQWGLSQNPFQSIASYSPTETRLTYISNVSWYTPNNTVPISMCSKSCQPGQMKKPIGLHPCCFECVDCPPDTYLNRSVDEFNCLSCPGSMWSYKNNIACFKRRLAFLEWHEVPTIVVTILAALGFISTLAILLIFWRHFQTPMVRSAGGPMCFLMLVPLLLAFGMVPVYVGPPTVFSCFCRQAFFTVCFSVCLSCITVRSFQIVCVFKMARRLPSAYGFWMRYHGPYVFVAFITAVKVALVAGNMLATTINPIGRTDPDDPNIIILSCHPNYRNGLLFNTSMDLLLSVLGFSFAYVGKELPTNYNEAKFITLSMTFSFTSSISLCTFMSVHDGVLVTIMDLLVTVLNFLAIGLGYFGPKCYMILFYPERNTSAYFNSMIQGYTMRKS
Briefly: Intracellular calcium ion assay, 293 cells coexpressing G protein α-subunits, T1R1 and T1R2. Format: cell-based. Conditions: 293 cells: T1R1 + T1R2 + G protein α-subunits; 0.67 ml of 1 M saccharide solution added to 2 ml cell suspension; FLUO-4 AM. As for the experimental part:
The coexpression vector for the G protein α-subunit α15 and the G protein α16/Z chimeric protein (hereinafter designated as “G protein α-subunits”) obtained in Example 1-3 was gene transferred to 293 cells, RCB 1637, a human embryonic kidney cell line, available from the Riken Bioresource Center, Ibaraki, Japan, by conventional lipofection. The gene transferred cells were suspended in Dulbecco's Modified Eagle's Medium (D-MEM) supplemented with 1 mg/L of “PUROMYCIN”, a trade mane of puromycin commercialized by Edge Biosystems, MD, USA, and 10% (v/v) of fetal calf serum to give a cell density of 2×10^6 cells/ml and cultured in a plastic petri dish for cell culture. […]
The captioned reactivity test was conducted according to a conventional intracellular calcium ion assay: 293 Cells prepared in Example 3, capable of coexpressing the G protein α-subunits and the sweet taste receptor(s), were cultured in a plastic petri dish for cell culture until reaching its confluent phase. […] Two milliliters of the resultant cell suspension was injected into a glass cuvette, commercialized by Hitachi, Ltd., Tokyo, Japan, and analyzed on “HITACHI 650-40”, a fluorescence spectrophotometer commercialized by Hitachi, Ltd., Tokyo, Japan. […]
(A change in cytosolic calcium serves as a functional read-out for many receptors and channels.)

On to `OC[C@H]1O[C@H](O[C@H]2O[C@H](CO)[C@@H](O)[C@H](O)[C@H]2O)[C@H](O)[C@@H](O)[C@@H]1O` [Trehalose], for which the “Influx of calcium ion” value is “Negative”. `OC[C@H]1O[C@@](CO)(O[C@H]2O[C@H](CO)[C@@H](O)[C@H](O)[C@H]2O)[C@@H](O)[C@@H]1O` [Sucrose, reference compound]: the “Influx of calcium ion” value is on record as “Negative”.
